# Results taken from US20200188465A1, “TREATMENT OF CYTOKINE RELEASE SYNDROME BY DECREASING LEVEL OF PROINFLAMMATORY CYTOKINE” (Gwo Xi Stem Cell Applied Technology Co., Ltd., priority 2018, published 2020).
# Entries after “also recorded” stand apart in the source; their conditions may differ. Like-named read-outs stand apart in the source and are kept apart here.
# Assays:
# Type in all cases: cell-based, Human
# IFN-γ [1] = test: IFN-γ release (ELISA) of Jurkat T cells pre-stimulated with PMA plus ionomycin, then drug (Embodiment 1); details: for IFN-γ/cell viability: Jurkat pretreated PMA + ionomycin; for IFN-γ content in the cells is reduced at least: summary, concentration not given
# Method: (§1) Human Jurkat T cell line (Clone E6-1, ATCC TIB 152) and THP-1 were used in the embodiments and purchased from Bioresource Collection and Research Centre (BCRC), Taiwan. The cells were maintained in RPMI 1640 medium (Gibco, Carlsbad, Calif., USA) with 2 mM L-glutamine adjusted to contain 1.5 g/L sodium bicarbonate, 4.5 g/L glucose, 10 mM HEPES, 1.0 mM sodium pyruvate, 1% (v/v) penicillin-streptomycin (HyClone, Logan, Utah), and 10% (v/v) fetal bovine serum (FBS; HyClone). The cells were kept in the incubator with 5% CO2 at 37° C. The passages were performed when the cell density didn't allow the cell concentration to exceed 3×10^6 cells/mL.
# (§2) Jurkat cells were seeded in 48-well culture plates at a density of 5.0×10^5 cells/mL in culture medium. To promote Interferon gamma (IFN-γ; IFNG) production, the cells were stimulated with or without the combination of PMA and Ionomycin in culture medium. THP-1 cells were treated with or without the LPS that promoted IL6 production.
# (§3) The culture supernatants were harvested by centrifugation and stored at −20° C. for cytokine analysis. The concentration of IFN-γ and IL6 were measured by ELISA kit (Invitrogen, Carlsbad, Calif., USA) according to the manufacturer's instructions.
# (§4) After 6 and 24 hours, the supernatants were collected for cell viability analysis and cytokine analysis. The concentration of cytokine was measured by Human IFN-γ ELISA kit (Invitrogen) according to the manufacturers.
# Jurkat T cells = test: Cell viability (MTS) of Jurkat T cells pre-stimulated with PMA plus ionomycin, then drug (Embodiment 1)
# Method: as §1, §2
# (§5) The cell viability was determined using MTS reagent (Promega). Assays were performed by adding MTS to each well for 3 hours at 37° C. with 5% CO2. The amount of formazan converted by living cells, and then recording absorbance at 490 nm with a 96-well plate reader.
# as §4
# THP-1 cells = test: Cell viability (MTS) of THP-1 cells pre-stimulated with LPS, then drug (Embodiment 2)
# Jurkat cells = test: Cell viability (MTS) of Jurkat cells co-treated with PMA, ionomycin and drug (Embodiments 3 and 4)
# Method: as §1, §5
# (§6) In the Embodiment, Jurkat cells were seeded in 48-well culture plates at a density of 5.0×10^5 cells/mL indifferent culture medium, and each of the culture medium contains PMA, ionomycin, and THZ in the proportions shown in Table 3 below.
# (§7) After 24 and 48 hours, the supernatants were collected for cell viability analysis and cytokine analysis. The concentration of cytokine was measured by Human IFN-γ ELISA kit (Invitrogen) according to the manufacturers.
# (§8) In the Embodiment, Jurkat cells were seeded in 48-well culture plates at a density of 5.0×10^5 cells/mL in different culture medium, and each of the culture medium contains PMA, ionomycin, and HH-F3 in the proportions shown in Table 4 below.
# (§9) After 24, 30, and 48 hours, the supernatants were collected for cell viability analysis and cytokine analysis. The concentration of cytokine was measured by Human IFN-γ ELISA kit (Invitrogen) according to the manufacturers.
# IL6 = IL6 release (ELISA) of THP-1 cells pre-stimulated with LPS, then drug (Embodiment 2); details: for IL-6 content in the cells is reduced at least: summary, concentration not given; for IL6/cell viability: THP-1 pretreated LPS
# Method: HyClone). […] The passages were performed when the cell density didn't allow the cell concentration to exceed 3×10^6 cells/mL. Jurkat cells were seeded in 48-well culture plates at a density of 5.0×10^5 cells/mL in culture medium. To promote Interferon gamma (IFN-γ; IFNG) production, the cells were stimulated with or without the combination of PMA and Ionomycin in culture medium. THP-1 cells were treated with or without the LPS that promoted IL6 production. The culture supernatants were harvested by centrifugation and stored at −20° C. for cytokine analysis. The concentration of IFN-γ and IL6 were measured by ELISA kit (Invitrogen, Carlsbad, Calif., USA) according to the manufacturer's instructions. […] The concentration of cytokine was measured by IL6 ELISA kit (Invitrogen) according to the manufacturers.
# IFN-γ [2] = test: IFN-γ release (ELISA) of Jurkat cells co-treated with PMA, ionomycin and drug (Embodiments 3 and 4); details: for inhibition at 1 µM / inhibition at 5 µM: Homo sapiens, Jurkat, read-out: IFN-γ/cell viability lower than group 2 (PI alone); for inhibition at 1 µM: group 3 (THZ 1 μM); for inhibition at 5 µM: group 4 (THZ 5 μM); for effect on cytokine induction, in words: co-treatment with PMA + ionomycin
# Method: as §1, §3, §6, §7, §8, §9
# [3] = drug 1 μM, 6 h, IFN-γ normalized with cell viability
# [4] = drug 1 μM, 6 h, Jurkat pretreated PMA 0.01 μg/mL + ionomycin 1 μM 24 h
# [5] = drug 1 μM, 24 h, Jurkat pretreated PMA + ionomycin
# [6] = drug 5 μM, 6 h, Jurkat pretreated PMA + ionomycin
# [7] = drug 5 μM, 24 h, Jurkat pretreated PMA + ionomycin
# [8] = drug 10 μM, 6 h, Jurkat pretreated PMA + ionomycin
# [9] = drug 10 μM, 24 h, Jurkat pretreated PMA + ionomycin
# [10] = at 24 hours after administering
# [11] = group 3, THZ 1 μM co-treated with PI, 48 hr
# [12] = group 4, THZ 5 μM co-treated with PI, 24 hr
# [13] = group 4, THZ 5 μM co-treated with PI, 48 hr
structure (smiles),measurement,setting,value
"O=C(CCCCCCC(=O)Nc1ccccc1)NO [SAHA, Suberoylanilide hydroxamic acid]",IFN-γ/cell viability,IFN-γ [1]; [3],25.5 pg/mL
same,IFN-γ/cell viability,"IFN-γ [1]; drug 1 μM, 24 h",33.8 pg/mL
same,IFN-γ/cell viability,"IFN-γ [1]; drug 5 μM, 6 h",28.2 pg/mL
same,IFN-γ/cell viability,"IFN-γ [1]; drug 5 μM, 24 h",34.0 pg/mL
same,IFN-γ/cell viability,"IFN-γ [1]; drug 10 μM, 6 h",28.0 pg/mL
same,IFN-γ/cell viability,"IFN-γ [1]; drug 10 μM, 24 h",32.0 pg/mL
same,Cell Viability (%),Jurkat T cells; [4],70 ± 9%
same,Cell Viability (%),Jurkat T cells; [5],53 ± 5%
same,Cell Viability (%),Jurkat T cells; [6],65 ± 7%
same,Cell Viability (%),Jurkat T cells; [7],59 ± 2%
same,Cell Viability (%),Jurkat T cells; [8],65 ± 2%
same,Cell Viability (%),Jurkat T cells; [9],60 ± 6%
"CSc1ccc2c(c1)N(CCC1CCCCN1C)c1ccccc1S2 (stereo not drawn) [THZ, Thioridazine]",IFN-γ content in the cells reduced,"IFN-γ [1]; 1 μM, after 6 hours, vs PMA + ionomycin alone",18.6%
same,IFN-γ content in the cells reduced,"IFN-γ [1]; 1 μM, after 24 hours",28.2%
same,IFN-γ content in the cells reduced,"IFN-γ [1]; 5 μM, after 6 hours",23.7%
same,IFN-γ content in the cells reduced,"IFN-γ [1]; 5 μM, after 24 hours",57.7%
same,IFN-γ content in the cells reduced,"IFN-γ [1]; 10 μM, after 6 hours",36.2%
same,IFN-γ content in the cells reduced,"IFN-γ [1]; 10 μM, after 24 hours",52.2%
same,"effect on IFN-γ content, in words","IFN-γ [1]; Jurkat, PMA + ionomycin, 6 hr and 24 hr",significantly decreased IFN-γ expression; also recorded: stronger effects to cells compared to TFP and SAHA
same,IFN-γ content in the cells is reduced at least,IFN-γ [1]; at 6 hours after administering,at least 18.6%
same,IFN-γ content in the cells is reduced at least,IFN-γ [1]; [10],at least 28.2%
same,IFN-γ/cell viability,IFN-γ [1]; [3],38.4 pg/mL
same,IFN-γ/cell viability,"IFN-γ [1]; drug 1 μM, 24 h",24.4 pg/mL
same,IFN-γ/cell viability,"IFN-γ [1]; drug 5 μM, 6 h",36.0 pg/mL
same,IFN-γ/cell viability,"IFN-γ [1]; drug 5 μM, 24 h",14.4 pg/mL
same,IFN-γ/cell viability,"IFN-γ [1]; drug 10 μM, 6 h",30.1 pg/mL
same,IFN-γ/cell viability,"IFN-γ [1]; drug 10 μM, 24 h",16.3 pg/mL
same,Cell Viability (%),Jurkat T cells; [4],79 ± 5%
same,Cell Viability (%),Jurkat T cells; [5],69 ± 6%
same,Cell Viability (%),Jurkat T cells; [6],77 ± 2%
same,Cell Viability (%),Jurkat T cells; [7],69 ± 4%
same,Cell Viability (%),Jurkat T cells; [8],77 ± 2%
same,Cell Viability (%),Jurkat T cells; [9],55 ± 3%
same,Cell Viability (%),"THP-1 cells; drug 1 μM, 6 h, THP-1 pretreated LPS 0.1 μg/mL 16 h",88 ± 7%
same,Cell Viability (%),"THP-1 cells; drug 1 μM, 24 h, THP-1 pretreated LPS",103 ± 1%
same,Cell Viability (%),"THP-1 cells; drug 5 μM, 6 h, THP-1 pretreated LPS",79 ± 5%
same,Cell Viability (%),"THP-1 cells; drug 5 μM, 24 h, THP-1 pretreated LPS",101 ± 8%
same,Cell Viability (%),"THP-1 cells; drug 10 μM, 6 h, THP-1 pretreated LPS",68 ± 4%
same,Cell Viability (%),"THP-1 cells; drug 10 μM, 24 h, THP-1 pretreated LPS",87 ± 5%
same,"effect on cell viability, in words",Jurkat cells; co-treatment with PMA + ionomycin,does not affect cell viability
same,Cell Viability (%),Jurkat cells; [11],71 ± 4%
same,Cell Viability (%),"Jurkat cells; group 3, THZ 1 μM co-treated with PMA 0.01 μg/mL + ionomycin 1 μM, 24 hr",81 ± 4%
same,Cell Viability (%),Jurkat cells; [12],74 ± 6%
same,Cell Viability (%),Jurkat cells; [13],65 ± 4%
same,IL-6 content in the cells reduced,"IL6; 1 μM, after 6 hours, vs LPS alone",20.7%
same,IL-6 content in the cells reduced,"IL6; 1 μM, after 24 hours",39.5%
same,IL-6 content in the cells reduced,"IL6; 5 μM, after 6 hours",37.1%
same,IL-6 content in the cells reduced,"IL6; 5 μM, after 24 hours",51.8%
same,IL-6 content in the cells reduced,"IL6; 10 μM, after 6 hours",45.9%
same,IL-6 content in the cells reduced,"IL6; 10 μM, after 24 hours",65.2%
same,IL-6 content in the cells is reduced at least,"IL6; ""at hours after administering"" (number not given)",at least 20.7%
same,"effect on IL-6 content, in words","IL6; Table 2, 6 hr and 24 hr",stronger effects to cells compared to TFP
same,IL-6 content in the cells is reduced at least,IL6; [10],at least 39.5%
same,IL6/cell viability,"IL6; drug 1 μM, 6 h, IL6 normalized with cell viability",52.9 pg/mL
same,IL6/cell viability,"IL6; drug 1 μM, 24 h",41.3 pg/mL
same,IL6/cell viability,"IL6; drug 5 μM, 6 h",41.9 pg/mL
same,IL6/cell viability,"IL6; drug 5 μM, 24 h",32.9 pg/mL
same,IL6/cell viability,"IL6; drug 10 μM, 6 h",36.1 pg/mL
same,IL6/cell viability,"IL6; drug 10 μM, 24 h",23.7 pg/mL
same,inhibition at 1 µM,IFN-γ [2]; 24 hr,46.5%
same,inhibition at 1 µM,IFN-γ [2]; 48 hr,18.7%
same,inhibition at 5 µM,IFN-γ [2]; 24 hr,45.3%
same,inhibition at 5 µM,IFN-γ [2]; 48 hr,1%
same,"effect on cytokine induction, in words",IFN-γ [2],significantly attenuated cytokine induction in Jurkat cells
same,"effect on cytokine induction, in words",IFN-γ [2]; listed as Thioridazine,able to reduce cytokine production
same,IFN-γ/cell viability,"IFN-γ [2]; group 3, THZ 1 μM co-treated with PI, 24 hr",34.9 ± 0.5 pg/mL
same,IFN-γ/cell viability,IFN-γ [2]; [11],32.6 ± 0.6 pg/mL
same,IFN-γ/cell viability,IFN-γ [2]; [12],35.7 ± 0.2 pg/mL
same,IFN-γ/cell viability,IFN-γ [2]; [13],39.7 ± 0.6 pg/mL
